In patent publication US11104690B2, “Indazole derivatives useful as inhibitors of diacylglyceride O-acyltransferase 2” (Merck Sharp & Dohme Corp., priority 2016, dated 2021) one finds IC50 data, which are given here for 21 compounds.

Human DGAT2, sequence (Q96PD7 whole entry): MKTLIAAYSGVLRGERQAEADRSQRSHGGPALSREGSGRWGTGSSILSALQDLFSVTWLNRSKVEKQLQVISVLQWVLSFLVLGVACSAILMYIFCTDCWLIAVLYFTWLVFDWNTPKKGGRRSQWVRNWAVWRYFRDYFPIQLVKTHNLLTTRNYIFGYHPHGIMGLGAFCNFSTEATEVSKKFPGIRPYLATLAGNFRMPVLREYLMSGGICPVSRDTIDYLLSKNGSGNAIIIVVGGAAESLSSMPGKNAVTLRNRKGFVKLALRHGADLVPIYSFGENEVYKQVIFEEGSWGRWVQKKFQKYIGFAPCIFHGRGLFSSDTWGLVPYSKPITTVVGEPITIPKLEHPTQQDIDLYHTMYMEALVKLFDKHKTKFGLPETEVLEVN

The experiment addresses Human DGAT2 (Homo sapiens (Human), UniProt Q96PD7). The experiment is described as follows: DGAT2 Enzymatic Activity Assay (triolein formation, LC/MS/MS). In kind it is biochemical. The settings on record: hDGAT2 Sf-9 membrane prep; 25 μM diolein, 10 μM oleoyl-CoA; room temperature. The essentials: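 Triolein product, measured by LC/MS/MS as a ratio to internal standard, gave % inhibition and 4-parameter IC50. Reaction: 25 μM diolein, 10 μM oleoyl-CoA, 10 ng/μL hDGAT2 Sf-9 membrane, 100 mM Tris.Cl pH 7.0, 20 mM MgCl2, 5% ethanol, room temperature.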
Consider `O=C(NC1(CO)CCS(=O)(=O)C1)c1ccc2c(-c3ccccc3Cl)nn(-c3ccc(F)cc3)c2c1` (racemic) [Example 92, 3-(2-chlorophenyl)-1-(4-fluorophenyl)-N-[3-(hydroxymethyl)-1,1-dioxidotetrahydrothiophen-3-yl]-1H-indazole-6-carboxamide], for which the midpoint of inhibition, the IC50, lay at 372 nM.

With `Cc1n[nH]c(C)c1C(C)NC(=O)c1ccc2c(-c3ccccc3Cl)nn(-c3ccc(F)cc3)c2c1` (racemic) [Example 17, 3-(2-chlorophenyl)-N-[1-(3,5-dimethyl-1H-pyrazol-4-yl)ethyl]-1-(4-fluorophenyl)-1H-indazole-6-carboxamide], the IC50 is 83 nM.

The compound `CO[C@@H]1C[C@H](NC(=O)c2ccc3c(-c4ccccc4Cl)nn(-c4ccc(F)cc4)c3c2)[C@H](O)[C@H](C)O1` [Example 111, 3-(2-chlorophenyl)-1-(4-fluorophenyl)-N-((2S,3S,4S,6S)-3-hydroxy-6-methoxy-2-methyltetrahydro-2H-pyran-4-yl)-1H-indazole-6-carboxamide] registered an IC50 of 194 nM. On to `O=C(NC1(c2ccc(Br)cc2)CC(O)C1)c1ccc2c(-c3ccccc3Cl)nn(-c3ccc(F)cc3)c2c1` (stereo not drawn) [Example 108, N-[1-(4-bromophenyl)-3-hydroxycyclobutyl]-3-(2-chlorophenyl)-1-(4-fluorophenyl)-1H-indazole-6-carboxamide], for which the IC50 was found to be 393 nM.

`O=C(NC1CCS(=O)(=O)C1)c1ccc2c(-c3cncnc3)nn(-c3ccc(F)cc3)c2c1` (single isomer, unassigned) [Example 133-A, N-(1,1-dioxidotetrahydrothiophen-3-yl)-1-(4-fluorophenyl)-3-pyrimidin-5-yl-1H-indazole-6-carboxamide] had an IC50 of 846 nM. Compared with the last compound, the IC50 is about 2.2-fold higher.

The compound `CC(c1cc(-c2ccccc2)[nH]n1)N(C)C(=O)c1ccc2c(-c3ccccc3Cl)nn(-c3ccc(F)cc3)c2c1` (racemic) [Example 27, 3-(2-chlorophenyl)-1-(4-fluorophenyl)-N-methyl-N-[1-(5-phenyl-1H-pyrazol-3-yl)ethyl]-1H-indazole-6-carboxamide] gave an IC50 of 301 nM. The compound `O=C(NCc1cncnc1)c1ccc2c(-c3ccccc3Cl)nn(-c3ccc(F)cc3)c2c1` [Example 38, 3-(2-chlorophenyl)-1-(4-fluorophenyl)-N-(pyrimidin-5-ylmethyl)-1H-indazole-6-carboxamide] had an IC50 of 368 nM. Consider `O=C(N[C@@H]1CS(=O)(=O)C[C@H]1O)c1ccc2c(-c3ccccc3Cl)nn(-c3ccc(F)cc3)c2c1` [Example 9, 3-(2-chlorophenyl)-1-(4-fluorophenyl)-N-[(3S,4S)-4-hydroxy-1,1-dioxidotetrahydrothiophen-3-yl]-1H-indazole-6-carboxamide], for which the IC50 stood at 531 nM.

For `O=C(NC1(CO)CCc2ccccc21)c1ccc2c(-c3ccccc3Cl)nn(-c3ccc(F)cc3)c2c1` (racemic) [Example 75, 3-(2-chlorophenyl)-1-(4-fluorophenyl)-N-[1-(hydroxymethyl)-2,3-dihydro-1H-inden-1-yl]-1H-indazole-6-carboxamide], the IC50 came out at 357 nM. Compound `Cc1ncc([C@H](C)NC(=O)c2ccc3c(-c4ccccc4Cl)nn(-c4ccc(F)cc4)c3c2)cn1` [Example 34, 3-(2-chlorophenyl)-1-(4-fluorophenyl)-N-[(1S)-1-(2-methylpyrimidin-5-yl)ethyl]-1H-indazole-6-carboxamide] came in with an IC50 of 75 nM. `CC(CO)(CO)NC(=O)c1ccc2c(-c3ccccc3Cl)nn(-c3ccc(F)cc3)c2c1` [Example 46, 3-(2-chlorophenyl)-1-(4-fluorophenyl)-N-[2-hydroxy-1-(hydroxymethyl)-1-methylethyl]-1H-indazole-6-carboxamide] yielded an IC50 of 49 nM.

In turn, `Cc1ccc(-n2nc(-c3ccccc3Cl)c3ccc(C(=O)NC4(C)CCS(=O)(=O)C4)cc32)nc1` (racemic) [Example 185, 3-(2-chlroophenyl)-N-(3-methyl-1,1-dioxidotetrahydrothiophen-3-yl)-1-(5-methylpyridin-2-yl)-1H-indazole-6-carboxamide] gave an IC50 of 9.5 nM. The result for `CC(C)[C@@H](CO)NC(=O)c1ccc2c(-c3ccccc3Cl)nn(-c3ccc(F)cc3)c2c1` [Example 69, 3-(2-chlorophenyl)-1-(4-fluorophenyl)-N-[(1S)-1-(hydroxymethyl)-2-methylpropyl]-1H-indazole-6-carboxamide] reads 8 nM; that for `C[C@@H](NC(=O)c1ccc2c(-c3ccccc3Cl)nn(-c3ccc(F)cc3)c2c1)c1ccc(C(F)(F)F)[n+]([O-])c1` [Example 3, 3-(2-chlorophenyl)-1-(4-fluorophenyl)-N-{(1R)-1-[1-oxido-6-(trifluoromethyl)pyridin-3-yl]ethyl}-1H-indazole-6-carboxamide], 155 nM. As to `O=C(NC1CCS(=O)(=O)CC1)c1ccc2c(-c3ccccc3Cl)nn(-c3ccc(F)cc3)c2c1` [Example 24, 3-(2-chlorophenyl)-N-(1,1-dioxidotetrahydro-2H-thiopyran-4-yl)-1-(4-fluorophenyl)-1H-indazole-6-carboxamide], half-maximal inhibition (IC50) required 61 nM. The compound `CC1(NC(=O)c2ccc3c(-c4ccccc4Cl)nn(-c4ccc(F)cn4)c3c2)CCS(=O)(=O)C1` (single isomer, unassigned) [Example 172-A] yielded an IC50 of 39 nM. Against the preceding compound, the IC50 is about 1.6-fold lower. For `O=C(NCc1cccnc1)c1ccc2c(-c3ccccc3Cl)nn(-c3ccc(F)cc3)c2c1` [Example 31, 3-(2-chlorophenyl)-1-(4-fluorophenyl)-N-(pyridin-3-ylmethyl)-1H-indazole-6-carboxamide], the midpoint of inhibition, the IC50, lay at 320 nM. This IC50 lies about 8.2-fold higher than the previous one. Compound `O=C(NCc1cnoc1)c1ccc2c(-c3ccccc3Cl)nn(-c3ccc(F)cc3)c2c1` [Example 37, 3-(2-chlorophenyl)-1-(4-fluorophenyl)-N-(isoxazol-4-ylmethyl)-1H-indazole-6-carboxamide] showed an IC50 of 221 nM. The IC50 values of the last two compounds are within 1.5-fold of each other. `O=C(NC1CCCC1)c1ccc2c(-c3ccccc3Cl)nn(-c3ccc(F)cc3)c2c1` [Example 84, 3-(2-chlorophenyl)-N-cyclopentyl-1-(4-fluorophenyl)-1H-indazole-6-carboxamide] gave an IC50 of 156 nM.

Turning to `CC(NC(=O)c1ccc2c(-c3ccccc3Cl)nn(-c3ccc(F)cc3)c2c1)c1cn(C(=O)OC(C)(C)C)cn1` (racemic) [Example 7, tert-butyl 4-[1-({[3-(2-chlorophenyl)-1-(4-fluorophenyl)-1H-indazol-6-yl]carbonyl}amino)ethyl]-1H-imidazole-1-carboxylate], 164 nM corresponded to half-maximal inhibition (IC50).

`O=C(NCc1cnc(C(F)(F)F)nc1)c1ccc2c(-c3ccccc3Cl)nn(-c3ccc(F)cc3)c2c1` [Example 49, 3-(2-chlorophenyl)-1-(4-fluorophenyl)-N-{[2-(trifluoromethyl)pyrimidin-5-yl]methyl}-1H-indazole-6-carboxamide] yielded a half-maximal inhibitory concentration (IC50) of 79 nM.

For orientation: IC50 means the midpoint of a concentration-inhibition curve. Low readings indicate greater potency in that assay, high ones weaker potency in that assay.
